In patent US20260076939A1, “CHIRAL GAMMA LACTAM DERIVATIVE OR PHARMACEUTICALLY ACCEPTABLE SALT THEREOF, AND PREPARATION METHOD THEREFOR” (Korea University Research and Business Foundation, priority 2022, published 2026):
Where a name gives a salt, the structure may show the parent alone.

Experiments:
[1] = test system: Parkinson's disease mouse MPTP model; test: Forced swim test (FST); assay type: in vivo; conditions: MPTP mice, FIG. 8; for immobility time in the forced swim test: ip 30 minutes before the test, compared to the MPTP alone treatment group
Method: (§1) Six-month-old normal mice were acclimated for one week, trained for behavioral testing, and then randomly divided into groups. To construct a Parkinson's disease mouse MPTP model, mice were treated with the chiral gamma-lactam derivative of the present disclosure or a pharmaceutically acceptable salt thereof (dissolved in 0.9% saline, intraperitoneally injected (ip)) for 3 days, and then were treated with MPTP (dissolved in 0.9% saline, ip) for 5 consecutive days. […] For the control mice group, the same volume of saline solution (ip) was provided. Two days after the last injection, the efficacy was confirmed by an open field test (OFT), forced swim test (FST), rotarod test, and pilocarpine-induced seizure evaluation.
The forced swim test (FST) was performed to induce depressive behavior in mice. (1) First, a 2 L beaker was filled with water (25±1° C.) until the water was about 10 cm deep, and the mouse was allowed to swim. The mouse was returned to the breeding cage after 6 minutes. (2) The restraint stress group was confined in a restraint tube for 90 minutes until 60 minutes before the forced swim test was to be performed, and then the mouse was allowed to swim as mentioned in (1). Thereafter, the mouse was returned to the breeding cage. (3) In this case, the chiral gamma-lactam derivative of the present disclosure or a pharmaceutically acceptable salt thereof (saline, test drug) was injected into the abdominal cavity 30 minutes before the forced swim test was performed. Immobility time was measured for 4 minutes out of the 6 minutes and these measurements were compared between groups.

HEK293T cell line = test: Intracellular Ca2+ concentration by confocal laser scanning microscopy (CLSM), Fluo-3-AM; assay type: cell-based, human; conditions: HEK293T cells; for Ca2+ release performance: compared to the control rasagiline and the comparator (R)-phenylpiracetam, FIGS. 2 and 3
Method: To detect intracellular Ca^2+ levels, the HEK293T cell line, human renal epithelial cells, were seeded in 35 mm diameter confocal dishes 24 hours before the experiment and then were cultured to 40-60% confluency. The cells were loaded with […] fluorescent […] calcium indicator Fluo-3-acetoxymethyl (Fluo-3-AM; Invitrogen) for 30 min at 37° C. The concentration of Ca^2+ was determined using CLSM (Zeiss LSM 700 Meta; Zeiss, Oberkochen, Germany). […] The excitation and emission wavelengths for signal detection were 488 nm and 515 nm, respectively. Analysis of intracellular calcium intensity was performed using Zen software (Carl Zeiss).

GDF-8/Myostatin [2] = test: Human skeletal myoblast (HSKM) differentiation induction test, ELISA of culture supernatant: GDF-8/Myostatin; assay type: cell-based; conditions: compared to IGF-1 and (R)-phenylpiracetam treatment groups, FIG. 4
Method: (§2) For the human skeletal myoblast (HSKM) differentiation induction test, human skeletal myoblasts (3×10^5 cells/well) were prepared in 24-well plates. Then, these cells were treated with the test substances and incubated in a 37° C., CO2 incubator for 48 hours. After 24 and 48 hours of incubation, the cell culture supernatant was collected into an E-tube and stored in a deep freezer. For ELISA analysis, the supernatant was thawed and prepared. ELISA analysis was performed based on the test method presented in the ELISA kit.

SMAD2 = test: Human skeletal myoblast (HSKM) differentiation induction test, ELISA: SMAD2; assay type: cell-based; conditions: compared to (R)-phenylpiracetam treatment group, FIG. 5(a)
Method: as §2

SMAD3 = test: Human skeletal myoblast (HSKM) differentiation induction test, ELISA: SMAD3; assay type: cell-based; conditions: compared to (R)-phenylpiracetam treatment group, FIG. 5(b)
Method: as §2

SYP (synaptophysin) = test: mRNA expression by real-time PCR in MPTP-treated SH-SY5Y cells: SYP; assay type: cell-based, human; conditions: 2.5 mM MPTP, compared to MPTP alone, FIG. 6(a)
Method: (§3) After inducing an inflammatory response by treating a human neuroblastoma SH-SY5Y cell line with 2.5 mM MPTP (1-methyl-4-phenyl-1,2,3,6-tetrahydropyridine), the mRNA expression of SYP (synaptophysin), GAP-43 (Growth-associated protein-43), MAO-B (Monoamine oxidase-B), and iNOS (inducible nitric oxide synthase) was confirmed by real-time PCR.

[3] = test system: Parkinson's disease mouse MPTP model; test: Open field test (OFT); assay type: in vivo, mice; conditions: for total distance moved in the open field test: 10 mg/kg, compared to (R)-phenylpiracetam, MPTP alone and Selegiline treatment groups
Method: as §1
To measure general motor activity levels and behavioral anxiety of the mice, an open field test was performed. (1) First, 30 minutes before performing the open field test, the chiral gamma-lactam derivative of the present disclosure or a pharmaceutically acceptable salt thereof and a vehicle (saline, test drug) were injected intraperitoneally to the mice and their behavior was video recorded for 10 minutes. (2) Video analysis was used to check for sedation and measure the distance the mice moved.

[4] = test system: Parkinson's disease mouse MPTP model; test: Rotarod test (latency to fall), 5 weeks; assay type: in vivo; conditions: MPTP mice; for motility in the rotarod test (latency to fall): compared to the control group and the MPTP alone treatment group, FIG. 9(a)
Method: as §1
(§4) To evaluate the walking and motor abilities of the lower extremities of mice, a rotarod test was performed for 5 weeks. Motor coordination and balance were assessed by placing the mice on a rotating bar and measuring the time until they fell therefrom (latency to fall). MPTP was injected intraperitoneally into the mice at a concentration of 30 mg/kg for 5 consecutive days. One week after the MPTP was injected, MPTP was administered to the mice intraperitoneally (15 mg/kg) twice a week. The rotarod consists of a rotatable cylindrical rod with a diameter of 7 cm, located at a height of 60 cm and six baffles spaced at 15 cm intervals. Then, mice were placed on the rod while the rod was rotated for 180 seconds at a speed of 5 to 50 rpm (maximum speed) and the latency to fall was measured. At this time, the mice were sufficiently trained to be acclimated during the experimental period.

[5] = test system: tibialis anterior (TA) and extensor digitorum longus (EDL) muscle; test: Muscle weight after the five-week rotarod test; assay type: in vivo; conditions: MPTP mice, after five weeks; for tibialis anterior (TA) muscle weight: FIG. 9(b); for extensor digitorum longus (EDL) muscle weight: FIG. 9(c)
Method: as §4

[6] = test system: pilocarpine-induced seizure mouse model; test: Evaluation of pilocarpine-induced seizures; assay type: in vivo; conditions: male C57BL/6J mice, 15 mg ip 25 minutes before pilocarpine 330 mg/kg, monitored for 24 hours; compared to the control group; FIG. 10
Method: A pilocarpine-induced seizure mouse model was created to study changes in brain activity. Pilocarpine is an agonist that binds to muscarinic cholinergic receptors in nerve cells and increases cell activity, and is used to create a mesial temporal lobe epilepsy model.
The present experiment was performed on surgically operated-on male C57BL/6J mice under a constant environmental condition (24-25° C., 50-60% humidity, 12-hour light/dark cycle). […] Pilocarpine (Sigma, Deisenhofen, Germany) was injected intraperitoneally into the mouse at a single dose of 330 mg/kg, and behavioral and electrophysiological seizure patterns were monitored for 24 hours. […]
The seizure patterns were divided into the following five types, and cases (4) and (5) were defined as convulsive seizures and analyzed for their frequency and duration: (0) no convulsive behavior; (1) facial clonus; (2) head nodding; (3) forelimb clonus; (4) rearing: animal in a standing posture aided by tail and the laterally spread hindlimbs showing increased tone; (5) rearing and falling back.

GDF-8/Myostatin [7] = test: Expression of the sarcopenia-related marker GDF-8/Myostatin in mouse serum; assay type: in vivo; conditions: MPTP mice, 15 mg/kg ip twice a week for 5 weeks, FIG. 11; for expression level of GDF-8/Myostatin in mouse serum: compared to IGF-1 and (R)-phenylpiracetam treatment groups
Method: MPTP was injected intraperitoneally into the mouse at a concentration of 30 mg/kg for 5 consecutive days. One week after the MPTP was injected, the chiral gamma-lactam derivative of the present disclosure or a pharmaceutically acceptable salt thereof (Ph-10, 20, 30) was administered intraperitoneally to the mouse at a concentration of 15 mg/kg twice a week, for 5 weeks, and the changes in the expression level of GDF-8/Myostatine, a sarcopenia-related marker in mouse serum, were determined.

[8] = test system: GAP-43 (Growth-associated protein-43); test: mRNA expression by real-time PCR in MPTP-treated SH-SY5Y cells: GAP-43; assay type: cell-based, human; conditions: 2.5 mM MPTP, compared to MPTP alone, FIG. 6(a)
Method: as §3

[9] = test system: MAO-B (Monoamine oxidase-B); test: mRNA expression by real-time PCR in MPTP-treated SH-SY5Y cells: MAO-B; assay type: cell-based, human; conditions: 2.5 mM MPTP, compared to MPTP alone, FIG. 6(a)
Method: as §3

[10] = test system: iNOS (inducible nitric oxide synthase); test: mRNA expression by real-time PCR in MPTP-treated SH-SY5Y cells: iNOS; assay type: cell-based, human; conditions: 2.5 mM MPTP, compared to MPTP alone, FIG. 6(a)
Method: as §3

[11] = test system: human neuroblastoma SH-SY5Y cell line; test: Fluorescence microscopy of Ca2+ and superoxide anions in MPTP-treated SH-SY5Y cells; assay type: cell-based; conditions: SH-SY5Y after the MPTP treatment; FIG. 6(b)

| SMILES | immobility time in the forced swim test [1] | Ca2+ release performance (HEK293T cell line) | GDF-8/Myostatin level (GDF-8/Myostatin [2]) | SMAD2 level (SMAD2) | SMAD3 level (SMAD3) | mRNA expression of SYP (SYP (synaptophysin)) | total distance moved in the open field test ([3]; MPTP mice, ip, FIG. 7(b)) | motility in the rotarod test (latency to fall) [4] | tibialis anterior (TA) muscle weight [5] | extensor digitorum longus (EDL) muscle weight [5] | total number of convulsive seizures [6] | expression level of GDF-8/Myostatin in mouse serum (GDF-8/Myostatin [7]) | mRNA expression of MAO-B [9] | mRNA expression of iNOS [10] | other results |
| --- | --- | --- | --- | --- | --- | --- | --- | --- | --- | --- | --- | --- | --- | --- | --- |
| NC(=O)CN1C[C@@H](c2ccccc2)CC1=O [phenylpiracetam, (R)-phenylpiracetam, reference compound] | reduced immobility time |  |  |  |  |  |  |  |  |  |  |  |  |  |  |
| Cl.NC(=O)CN1C[C@H](c2ccccc2)CC1=O [Ph-20, (S)-2-(2-oxo-4-phenylpyrrolidin-1-yl)acetamide hydrochloride] | much shorter | far superior | performed equally or better | effective performance | effective performance | significantly increased | increased | motility was increased | increased by statistically significant levels | increased by statistically significant levels | effectively reduced | relatively lower |  |  |  |
| NNC(=O)CN1C[C@@H](c2ccccc2)CC1=O [Ph-10, (R)-2-(2-oxo-4-phenylpyrrolidin-1-yl)acetohydrazide hydrochloride] | much shorter | far superior | performed equally or better | effective performance | effective performance | significantly increased | increased | motility was increased | increased by statistically significant levels | increased by statistically significant levels |  | relatively lower | significantly reduced | significantly reduced | mRNA expression of GAP-43 [8]: significantly increased |
| Cl.NC(=O)CN1C[C@@H](c2ccccc2)CC1=O [Ph-30, (R)-2-(2-oxo-4-phenylpyrrolidin-1-yl)acetamide hydrochloride] | much shorter | far superior | reduced GDF-8/Myostatin level the most | lowered the SMAD2 and SMAD3 levels the most | lowered the SMAD2 and SMAD3 levels the most | significantly increased | increased | motility was increased | increased by statistically significant levels | increased by statistically significant levels | significantly lower | relatively lower | significantly reduced | significantly reduced | calcium release performance difference, (R)-type Ph-30 compared to (S)-type Ph-20 (HEK293T cell line): ≥ 2 times; time at which the intensity of intracellular calcium was highest (HEK293T cell line; CLSM, FIG. 1 (Ph-30)): 18 s; Ca2+ (fluorescence microscopy) [11]: significantly increased; superoxide anions (fluorescence microscopy) [11]: significantly reduced; total distance moved relative to the MPTP alone treatment group ([3]; MPTP mice, ip, FIG. 7(b)): approximately three times higher; distance moved in the open field test ([3]; mice, ip, 5, 10 and 15 mg/kg, compared to the control group, FIG. 7(a)): increased compared to the control group at all concentrations; immobility time in the forced swim test compared to the untreated control group (saline) [1]: lower immobility time than the untreated control group; efficacy in the rotarod test compared to the Ph-20 compound ([4]; FIG. 9): approximately twice the efficacy; expression level of GDF-8/Myostatin in mouse serum, comparison among the Ph compounds (chirality) (GDF-8/Myostatin [7]): lowest expression levels |
